Results: patent US20260015352A1, “METHYLTRANSFERASE INHIBITOR AND USE THEREOF” (CYTOSINLAB THERAPEUTICS CO., LTD., priority 2022, published 2026)

system: G401 cells; assay: G401 ELISA test; assay type: cell-based; conditions: Homo sapiens, G-401; G401 cells treated with compounds for 72 hours; ELISA detecting K27 and H3; read-out: G401_ELISA IC50
Procedure: • Plate Reader: Envision (Perkinelmner); plate shaker: IKA MTS 2/4; plate Washer: BioTek microplate wisher 405 select; Cell counter: Counterstar (Ruiyu-biotech); Cell culture incubator: MCO-15AC (ThermoFisher); Pipette: BioHit Multichannel. Pipette: 0.2-10 μL, 10-300 μL, 50-1200 μL; Centrifuge: Thermo Centrifuge ST 40R; Pure water system: Millipore Milli-Q Reference system; Refrigerator: Haier −80 degree, −20 degree, and 4-degree refrigerators; cell cryopreservation box: Mr. Frosty™ Gradient Cooling Box Cat #5100-0001
• McCoys 5A (Modified) culture medium (ATCC); FBS (Gibco); 0.25% Trypsin/EDTA (Gibco); PBS (Hyclone); Penicillin/Streptomycin(100×) (Gibco); DMSO (Sigma); 384 cell culture plate (Corning); 384 detection plate (Greiner); 96 well plate (compound dilution) (Haimen, Qunchao); T75 Cell Culture Bottle (Corning)
G401 cells were seeded in a 384-well cell culture plate and incubated overnight at 37° C. in a 5% CO2 cell culture incubator, after which the cells were treated with compounds of different concentrations for 72 hours. The 384-well cell culture plate was taken out and upside down in a centrifuge to centrifugeat 300 rpm for 1 minute. After centrifugation, the 384-well cell culture plate was washed twice with PBS, added with lysis solution and lysed for 60 minutes. Then neutralization buffer was added for mixing and incubation was continued for 30 minutes. 20 ul (for detecting K27) and 10 ul (for detecting H3) of cell lysate were extracted from the 384-well cell culture plate and transferred to a 384 ELISA detection plate and incubate overnight at 4° C. The next day, the 384 ELISA plate was taken out and washed 5 times with TBST in a microplate washer. Then, the plate was added with a blocking solution and sealed at room temperature for 1 hour. The blocking solution was discarded and the primary antibody was added and then the plate was incubated at room temperature for 1 hour. After incubation, the plate was washed with TBST 5 times in a microplate washer, then added with secondary antibody and incubated at room temperature for 1 hour. After incubation, the plate was washed with TBST 5 times in a microplate washer, and finally added with color developer for color development. The plate was read with Envision plate reader. The obtained data was converted into inhibition rate using the following calculation method: % Inhibition rate=100−100*(compound absorbance−positive control absorbance)/(negative control absorbance−positive control absorbance), and then the inhibition rate data was subjected to curve fitting using the “logarithmic (inhibitor) and reaction-variable slope (four parameters)” model in GraphPad Prism 5 software.
The inhibition rate of the compound was calculated as follows: […]
The compounds of the present invention were tested according to the above experimental method, and some results were shown in Table 3. The test results were classified by A, B, and C, wherein A represents IC50≤0.1 uM; B represents 0.1 uM<IC50≤1 uM; C represents IC50>1 uM

Structure (SMILES)	IC50
COc1nccc2ccc(Nc3ccc([C@@H](C)Nc4ncc(CC(=O)NC5COC5)cn4)cc3)nc12 (single isomer, unassigned) [PA062, 2-(2-((1-(4-((8-methoxy-1,7-naphthyridin-2-yl)amino)phenyl)ethyl)amino)pyrimidin-5-yl) acetic acid N-(oxetan-3-yl) acetamide]	100 to 1000 nM
C[C@H](Nc1ncc(CNC2CS(=O)(=O)C2)cn1)c1ccc(Nc2ccc3ccnc(Cl)c3n2)c(F)c1 (single isomer, unassigned) [PA248]	> 1000 nM
COc1nccc2ccc(Nc3ccc(CNc4ncc(CC(=O)OC(C)(C)C)cn4)cc3)nc12 [PA007]	> 1000 nM
O=C(Cc1cnc(NCc2ccc(Nc3ccc4ccnc(Cl)c4n3)cc2)nc1)NC1COC1 [PA010]	100 to 1000 nM
COc1nccc2ccc(Nc3ccc(CNc4cnc(C(C)(C)C(=O)NC5COC5)cn4)cc3)nc12 [PA038]	> 1000 nM
CC(C(=O)NC1COC1)c1cnc(NCc2ccc(Nc3ccc4ccnc(Cl)c4n3)cc2)nc1 (centres unmarked) [PA044]	100 to 1000 nM
O=C(Cc1cnc(NCc2ccc(Nc3ccc4ccncc4n3)cc2)nc1)NC1COC1 [PA048]	> 1000 nM
O=C(Cc1cnc(NCc2ccc(Nc3ccc4cccnc4n3)cc2)nc1)NC1COC1 [PA051]	> 1000 nM
C[C@H](C(=O)NC1COC1)c1cnc(NCc2ccc(Nc3ccc4ccnc(Cl)c4n3)cc2)nc1 [PA054]	100 to 1000 nM
C[C@@H](C(=O)NC1COC1)c1cnc(NCc2ccc(Nc3ccc4ccnc(Cl)c4n3)cc2)nc1 [PA055]	> 1000 nM
COc1nccc2ccc(Nc3ccc(CNc4ncc(CC(=O)NC5COC5)cn4)cc3)cc12 [PA066]	> 1000 nM
CNc1nccc2ccc(Nc3ccc(CNc4ncc(CC(=O)NC5COC5)cn4)cc3)nc12 [PA068]	100 to 1000 nM
O=C(Cc1cnc(NCC23CC(Nc4ccc5ccnc(Cl)c5n4)(C2)C3)nc1)NC1COC1 [PA069]	> 1000 nM
COc1nccc2ccc(Nc3ccc(CNc4ncc(CC(=O)NC5COC5)cn4)cn3)nc12 [PA070]	> 1000 nM
COc1ccc2ccc(Nc3ccc(CNc4ncc(CC(=O)NC5COC5)cn4)cc3)nc2n1 [PA073]	> 1000 nM
N#Cc1nccc2ccc(Nc3ccc(CNc4ncc(CC(=O)NC5COC5)cn4)cc3)nc12 [PA074]	> 1000 nM
COc1nccc2ccc(NC34CCC(CNc5ncc([C@H](C)C(=O)NC6COC6)cn5)(CC3)CC4)nc12 [PA078]	100 to 1000 nM
COc1nccc2ccc(Nc3ccc(CNc4ccc(CC(=O)NC5COC5)cc4)cc3)nc12 [PA081]	100 to 1000 nM
COc1nccc2ccc(Nc3ccc(CNc4ccc(CC(=O)NC5COC5)nc4)cc3)nc12 [PA082]	> 1000 nM
COc1nccc2ccc(Nc3ccc(CNc4ncc(CC(=O)NCCO)cn4)cc3)nc12 [PA151]	> 1000 nM
COCCNC(=O)Cc1cnc(NCc2ccc(Nc3ccc4ccnc(OC)c4n3)cc2)nc1 [PA152]	100 to 1000 nM
COc1nccc2ccc(Nc3ccc(CNc4ncc(CNC5COC5)cn4)cc3)nc12 [PA154]	100 to 1000 nM

More lines, now with the values ahead:

IC50	Structure (SMILES)
100 to 1000 nM	COc1nccc2ccc(Nc3ccc(C(C)Nc4ncc(CC(=O)NC5COC5)cn4)cc3)nc12 (racemic) [PA039, 2-(2-((1-(4-((8-methoxy-1,7-naphthyridin-2-yl)amino)phenyl)ethyl)amino)pyrimidin-5-yl) acetic acid N-(oxetan-3-yl) acetamide]
≤ 100 nM	COc1nccc2ccc(Nc3ccc(CNc4ncc(C(C)C(=O)NC5COC5)cn4)cc3)nc12 (racemic) [PA041, 2-[2-[[4-[(8-methoxy-1,7-naphthyridin-2-yl)amino]phenyl]methylamino]pyrimidin-5-yl]-N-(oxetan-3-yl) propanamide]
≤ 100 nM	COc1nccc2ccc(Nc3ccc(CNc4ncc([C@H](C)C(=O)NC5COC5)cn4)cc3)nc12 (single isomer, unassigned) [PA042, 2-[2-[[4-[(8-methoxy-1,7-naphthyridin-2-yl)amino]phenyl]methylamino]pyrimidin-5-yl]-N-(oxetan-3-yl) propanamide]
100 to 1000 nM	COc1nccc2ccc(Nc3ccc(CNc4ncc([C@@H](C)C(=O)NC5COC5)cn4)cc3)nc12 (single isomer, unassigned) [PA043, 2-[2-[[4-[(8-methoxy-1,7-naphthyridin-2-yl)amino]phenyl]methylamino]pyrimidin-5-yl]-N-(oxetan-3-yl) propanamide]
≤ 100 nM	CC(C(=O)NC1COC1)c1cnc(N[C@@H](C)C23CCC(Nc4ccc5ccnc(Cl)c5n4)(CC2)CC3)nc1 (single isomer, unassigned) [PA166]
≤ 100 nM	COc1nccc2ccc(Nc3ccc(CNc4ncc(CC(=O)NC5COC5)cn4)cc3)nc12 [PA001]
≤ 100 nM	COc1nccc2ccc(Nc3ccc(CNc4ncc(CC(=O)NC5COC5)cn4)c(F)c3)nc12 [PA034]
≤ 100 nM	O=C(Cc1cnc(NCC23CCC(Nc4ccc5ccnc(Cl)c5n4)(CC2)CC3)nc1)NC1COC1 [PA046, 2-[2-[[4-[(8-chloro-1,7-naphthyridin-2-yl)amino]-1-bicyclo[2.2.2]octyl]methylamino]pyrimidin-5-yl]-N-(oxetan-3-yl)acetamide]
≤ 100 nM	COc1nccc2ccc(Nc3ccc([C@H](C)Nc4ncc(CC(=O)NC5COC5)cn4)cc3)nc12 [PA061, 2-(2-((1-(4-((8-methoxy-1,7-naphthyridin-2-yl)amino)phenyl)ethyl)amino)pyrimidin-5-yl) acetic acid N-(oxetan-3-yl) acetamide]
≤ 100 nM	COc1nccc2ccc(NC34CCC(CNc5ncc(C(C)C(=O)NC6COC6)cn5)(CC3)CC4)nc12 (centres unmarked) [PA076]
≤ 100 nM	COc1nccc2ccc(NC34CCC(CNc5ncc([C@@H](C)C(=O)NC6COC6)cn5)(CC3)CC4)nc12 [PA077]
≤ 100 nM	COc1nccc2ccc(NC34CCC(CNc5ncc(CC(=O)NC6COC6)cn5)(CC3)CC4)nc12 [PA079]
≤ 100 nM	COc1nccc2ccc(Nc3ccc(CNc4ncc(CC(=O)NC5COC5)cn4)cc3F)nc12 [PA153]
≤ 100 nM	CNC(=O)C(NC1CS(=O)(=O)C1)c1cnc(N[C@@H](C)C23CCC(Nc4ccc5ccnc(Cl)c5n4)(CC2)CC3)nc1 (some centres unmarked) [PA162]
≤ 100 nM	COc1nccc2ccc(Nc3ccc([C@H](C)Nc4ncc(C(C)NC5CS(=O)(=O)C5)cn4)cc3F)nc12 (some centres unmarked) [PA163]
≤ 100 nM	C[C@H](Nc1ncc(C=CC2CS(=O)(=O)C2)cn1)C12CCC(Nc3ccc4ccnc(Cl)c4n3)(CC1)CC2 [PA164]
≤ 100 nM	C[C@H](Nc1ncc(CNC2CS(=O)(=O)C2)cn1)C12CCC(Nc3ccc4ccnc(Cl)c4n3)(CC1)CC2 [PA165]
≤ 100 nM	Cc1ccc2ccc(Nc3ccc([C@H](C)Nc4ncc(CNC5CS(=O)(=O)C5)cn4)cc3F)nc2c1Cl [PA167, (S)-3-(2-(1-(4-(8-chloro-7-methylquinolin-2-amino)-3-fluorophenyl)ethylamino)pyrimidin-5-ylmethylamino)thietan-1,1-dione]
≤ 100 nM	COc1nccc2ccc(NC34CCC([C@H](C)Nc5ncc(C(C)C(=O)NC6COC6)cn5)(CC3)CC4)nc12 (some centres unmarked) [PA168]
≤ 100 nM	CC(C(=O)NC1COC1)c1cnc(N[C@@H](C)C23CCC(Nc4ccc5ccnc(Cl)c5n4)(CC2)CC3)nc1 (stereo partly drawn) [PA169, 2-(2-(((S)-1-(4-((8-chloro-1,7-naphthyridin-2-yl)amino)bicyclo[2.2.2]octan-1-yl)ethyl)amino)pyrimidin-5-yl)-N-(oxetan-3-yl)propanamide]
≤ 100 nM	C[C@H](Nc1ncc(CNCCC#N)cn1)C12CCC(Nc3ccc4ccnc(Cl)c4n3)(CC1)CC2 [PA170]
≤ 100 nM	CC(Nc1ncc(CC(=O)N(CCC#N)C2COC2)cn1)C12CCC(Nc3ccc4ccnc(Cl)c4n3)(CC1)CC2 (centres unmarked) [PA171]
≤ 100 nM	COc1nccc2ccc(Nc3ccc([C@H](C)Nc4ncc(CNC5CS(=O)(=O)C5)cn4)cc3F)nc12 [PA172]
≤ 100 nM	COc1nccc2ccc(Nc3ccc([C@H](C)Nc4ncc(CN5CC(C#N)C5)cn4)cc3F)nc12 [PA173]
≤ 100 nM	C[C@H](Nc1ncc(C(O)C(=O)NC2COC2)cn1)C12CCC(Nc3ccc4ccnc(Cl)c4n3)(CC1)CC2 (some centres unmarked) [PA174]
≤ 100 nM	COc1nccc2ccc(Nc3ccc([C@H](C)Nc4ncc(CNC5C[S+]([O-])C5)cn4)cc3F)nc12 (some centres unmarked) [PA175]
≤ 100 nM	C[C@H](Nc1ncc(CC(=O)NC2COC2)cn1)C12CCC(Nc3ccc4ccnc(Cl)c4n3)(CC1)CC2 [PA176]
≤ 100 nM	CC(C(=O)N(CCC#N)C1COC1)c1cnc(N[C@@H](C)C23CCC(Nc4ccc5ccnc(Cl)c5n4)(CC2)CC3)nc1 (some centres unmarked) [PA177]
